Experimental data published in patent US8980564B2, “Predictive markers for taxane responsiveness and methods of use thereof” (The Governors of the University of Alberta, priority 2009, dated 2015).

Legend:
breast cancer = assay: Survival analysis of breast cancer patients after adjuvant docetaxel-based chemotherapy, stratified by Bad staining; format: in vivo, human; details: 180 women, multivariate modeling
Procedure: Tissue micoarrays were made from formalin fixed breast tissues in triplicate 0.6 mm cores using the TMArrayer™. Tissues on slides were deparaffinized in xylene and rehydrated in decreasing concentrations of ethanol to water. Endogenous peroxidase was quenched in 0.3% H2O2 for 10 minutes. For antigen retrieval, slides were placed in boiling citrate buffer pH 6.0 for 10 minutes followed by rinsing in water for 10 minutes. Tissues were incubated with the BAD antibody (Cell Signaling Technology) at a dilution of 1/25 at 4° C. overnight in a humidified container or with Bik antibody (Cell signaling Technology) at a dilution of 1/50 at room temperature in a humidified container. Slides were washed 2 times in PBS for 5 minutes. For the secondary antibody, Anti-Rabbit EnVision+System-HRP (Dako) was incubated on the tissues at room temperature for 30 minutes. Slides were washed 2 times in PBS and then tissues were incubated with DAB (Dako) for 10 minutes. Slides were rinsed in water for 10 minutes followed by a soak in 1% Copper Sulfate for 5 minutes. Haematoxylin was used to counterstain the tissues. […] Staining intensity was scored as 0 (absent), 1 (weak), or 2 (strong). […] Using ROC, an optimized cutpoint of 0.57 was chosen for Bad expression and an optimized cutpoint of 0.1 was chosen for Bik expression, and patients were analyzed based on this cutpoint. […]

Bad:Bcl-XL = assay: Co-immunoprecipitation of Bad with Bcl-XL; details: 25 nM paclitaxel 48 h or 2.5 uM STS 4 hours
Bad = assay: Subcellular fractionation, Bad localization by Western blotting; details: MCF-7, MDA-MB-468, SKBR-3; 25 nM paclitaxel 48 h or 2.5 uM STS 4 hours
breast cancer cell lines = assay: Apoptosis assays (TMRE loss, annexin V) in a panel of five breast cancer cell lines; format: cell-based, human; details: 25 nM paclitaxel; TMRE loss and annexin V positivity
Procedure: (§1) Apoptosis assays were performed as described previously (Czernick et al., 2009). Briefly, breast cancer cell lines were treated with dimethyl sulfoxide (DMSO) vehicle control or 25 nM paclitaxel, which corresponds to a clinically relevant dose (Blagosklonny and Fojo, 1999; Jordan et al., 1996). After treatment, samples were divided and analyzed for apoptosis. Apoptosis was evaluated by fluorescence-activated cell sorting (FACS) analysis using the following apoptotic markers: (i) mitochondrial dysfunction [loss of mitochondrial electrochemical potential and decreases in tetramethyl rhodamine ethyl ester (TMRE)]. Percent specific TMRE loss was determined as (% TMRE negative cells of treated sample−% TMRE negative cells of untreated control sample); (ii) increases in phosphatidylserine externalization (Annexin V). Percent specific annexin V positivity was determined as (% annexin V positive cells of treated sample−% annexin V positive cells of untreated control sample).
To investigate which BH3-only proteins are involved in paclitaxel-induced apoptosis, a panel of five validated breast cancer cell lines acquired from Dr. Gordon Mills (M.D. Anderson Cancer Center, U. of Texas) was analyzed; validated cells were used to avoid any controversy with respect to lineage authenticity (Graham et al., 1986; Osborne et al., 1987). […]

MCF-7 cell line = assay: Apoptosis assays (TMRE loss, annexin V) in MCF-7; format: cell-based, human; details: 25 nM paclitaxel
Procedure: as §1
Each cell line was treated with 25 nM of paclitaxel, which induces a clinically relevant intracellular accumulation of the drug in tissue culture conditions (Derry et al., 1998; Jordan et al., 1996). After the indicated amount of time, apoptosis was assessed by measuring mitochondrial electrochemical potential loss (TMRE loss) and phosphatidyl serine externalization (annexin V positivity) (FIG. 1A).

Bcl-XL = Bcl-XL protein level in treated cells; format: cell-based, human; details: paclitaxel-treated cells
Text: In fact, mitotic arrest-mediated repression of Bcl-XL contributes to cell death via liberation of Bax (Upreti et al., 2008).

MCF-7 cells = assay: DNA content analysis by propidium iodide staining (cell cycle); format: cell-based, human; details: up to 24 hours in paclitaxel
Procedure: Samples were fixed at −20° C. in ice-cold 70% ethanol for a minimum of 24 hours. After fixation, the samples were stained with 20 ug/ml propidium iodide, 2 mg/ml RNase, 0.1% Triton X-100 in PBS for 30 minutes at 4° C. Samples were analyzed in the FL-2 channel on the FACScan as previously described, with the exception that doublet discrimination was achieved by gating on the smaller width G2 cells as determined by analysis of pulse width versus pulse area (Goping et al., 2008).
To verify that the increased proportion of cells in G1 was due to delayed G1 exit and not increased G1 entry, G1 entry was inhibited by arresting cells at G2/M with paclitaxel. […] In time course analyses, the progression of cells from G1 through S to G2/M was delayed in Bad-depleted cells relative to control transfected cells. […] Based on these observations, and again while not wishing to be bound by theory, it was concluded that Bad contributes to cell cycle progression by facilitating exit from the G1 phase of the cell cycle and is supported by a similar role of Bad in rat fibroblasts (Chattopadhyay et al., 2001).

| Compound | hazard ratio of relapse, low Bad tumour staining intensity (breast cancer; 95% CI 1.05-3.66) | death hazard ratio, low Bad tumour staining intensity (breast cancer; 95% CI 1.05-3.66 as printed) | association of Bad and Bcl-XL (Bad:Bcl-XL) | mitochondrial translocation of Bad (Bad) | relative paclitaxel sensitivities of the breast cancer cell lines, rank order of increasing sensitivity (breast cancer cell lines) | cell death based on mitochondrial dysfunction and cellular morphology (MCF-7 cell line; MCF-7) | loss of mitochondrial potential (TMRE loss) (MCF-7 cell line; MCF-7) | phosphatidyl serine externalization (annexin V positivity) (MCF-7 cell line; MCF-7, cells do not express caspase 3) | levels of Bcl-XL protein (Bcl-XL) | mitotic arrest (G2/M) (MCF-7 cells) |
| --- | --- | --- | --- | --- | --- | --- | --- | --- | --- | --- |
| CC(=O)O[C@@]12CO[C@@H]1C[C@H](O)[C@@]1(C)C(=O)[C@H](O)C3=C(C)[C@@H](OC(=O)[C@H](O)[C@@H](NC(=O)OC(C)(C)C)c4ccccc4)C[C@@](O)([C@@H](OC(=O)c4ccccc4)[C@H]21)C3(C)C [docetaxel] | 1.96 | 3.65 | – | – | – | – | – | – | – | – |
| CN[C@@H]1C[C@H]2O[C@@](C)([C@@H]1OC)n1c3ccccc3c3c4c(c5c6ccccc6n2c5c31)C(=O)NC4 [STS, staurosporine] | – | – | remained as a complex | migrated to mitochondria | – | – | – | – | – | – |
| CC(=O)O[C@H]1C(=O)[C@@]2(C)[C@H]([C@H](OC(=O)c3ccccc3)[C@]3(O)C[C@H](OC(=O)[C@H](O)[C@@H](NC(=O)c4ccccc4)c4ccccc4)C(C)=C1C3(C)C)[C@]1(OC(C)=O)CO[C@@H]1C[C@@H]2O [paclitaxel] | – | – | decreased association of Bad and Bcl-XL | did not induce mitochondrial translocation of Bad | MDA-MB-231, T47-D, MDA-MB-468, MCF-7 and SKBR-3 | induced significant death | robust loss of mitochondrial potential | blunted | reduced levels of Bcl-XL protein | induced mitotic arrest |
